# From patent US20110070232A1, “Combination Therapy with an Antitumor Alkaloid” (Pharma Mar, S.A., priority 2008, published 2011)
# Read-outs that look alike come from different tables or passages of the source.
# Experiments:
# [1] = tested on: BxPC-3 tumors; assay type: in vivo, mice; details: mg/kg/day: PM00104 0.90 IV
# Method: Female CB17.SCID mice (Charles River Lab.) were utilized for all experiments. Animals were housed in ventilated rack caging with food and water ad libitum. The mice were acclimated for at least 5 days prior to tumor implantation with a tumor cell suspension.
# The tumor model used in these studies was BxPC-3 cell line, which was obtained from the ATCC (Manassas, Va.).
# Treatments were initiated on DPI 9.
# (§1) Tumor size measurements were recorded twice weekly from the treatment initiation until the termination of the study.
# (§2) Mean, standard deviation and standard error of the mean were determined for tumor volume for all animal groups at all assessments. Student's t test was performed on tumor volumes at each measurement day, including at the end of the study, to determine whether there were any statistically significant differences between combination treatment groups and single monotherapy treatment groups.
# [2] = tested on: MRI-H-254 tumors; assay type: in vivo, mice; details: for % T/C on day 17 / % T/C on day 20 / % T/C on day 24 / % T/C on day 27 / % T/C on day 32 / % T/C on day 35 / % T/C on day 39 / % T/C on day 47: doxorubicin 6 IP
# Method: Female athymic nude mice (Harlan Sprague Dawley, Madison, Wis.) were utilized for all experiments. Animals were housed in ventilated rack caging with food and water ad libitum. The mice were acclimated for at least 5 days prior to tumor implantation with tumor fragments. The Vehicle Control group contained 11 mice, groups 2-6 contained 8 mice/group, and the rest of groups contained 9 mice/group.
# This cell line was grown and implanted to the animals as described in Example 11.
# Tumor measurements were determined as disclosed in Example 4. […] Treatments were initiated on DPI 17.
# PM00104 was provided in the form of vials of lyophilized PM00104 powder which was reconstituted with water for injection.
# as §1, §2
# The definition and criteria for the evaluation of potentiation and the degree of additivity for the combination therapy were the same as those disclose in Example 4.
# [3] = tested on: HT-29 (colon cancer) cell line; test: IC50 determination, MIT (tetrazolium) assay, 72 h (Example 18); assay type: cell-based, human; details: Homo sapiens; HT-29, 72 hours of drug exposure
# [4] = tested on: LoVo (colon cancer) cell line; test: as above; assay type: cell-based, human; details: Homo sapiens, 72 hours of drug exposure
# [5] = PM00104 0.23 IV, paclitaxel 12.5 IP mg/kg/day (G4, G11, G12)
# [6] = PM00104 0.45 IV, paclitaxel 12.5 IP mg/kg/day (G3, G9, G10)
# [7] = PM00104 0.90 IV, paclitaxel 12.5 IP mg/kg/day (G2, G5, G6, G7, G8)
compound,measurement,setting,value
COc1c(C)cc2c(c1O)[C@@H]1[C@@H]3Cc4c(OC(C)=O)c(C)c5c(c4[C@H](CNC(=O)/C=C/c4cccc(C(F)(F)F)c4)N3[C@@H](O)[C@H](C2)N1C)OCO5 [PM00104],% Inhibition,"[1]; day 9, erlotinib 15 PO",−3.8%
same,% Inhibition,"[1]; day 9, erlotinib 30 PO",−3.8%
same,% Inhibition,"[1]; day 9, erlotinib 50 PO",−3.8%
same,% T/C on day,"[1]; day 9, erlotinib 50 PO",103.8%
same,% Inhibition,"[1]; day 12, erlotinib 15 PO",10.0%
same,% Inhibition,"[1]; day 12, erlotinib 30 PO",10.0%
same,% Inhibition,"[1]; day 12, erlotinib 50 PO",10.0%
same,% T/C on day,"[1]; day 12, erlotinib 50 PO",90.0%
same,% Inhibition,"[1]; day 15, erlotinib 15 PO",−20.0%
same,% Inhibition,"[1]; day 15, erlotinib 30 PO",−20.0%
same,% Inhibition,"[1]; day 15, erlotinib 50 PO",−20.0%
same,% T/C on day,"[1]; day 15, erlotinib 50 PO",120.0%
same,% Inhibition,"[1]; day 19, erlotinib 15 PO",1.4%
same,% Inhibition,"[1]; day 19, erlotinib 30 PO",1.4%
same,% Inhibition,"[1]; day 19, erlotinib 50 PO",1.4%
same,% T/C on day,"[1]; day 19, erlotinib 50 PO",98.6%
same,% Inhibition,"[1]; day 21, erlotinib 15 PO",30.1%
same,% Inhibition,"[1]; day 21, erlotinib 30 PO",30.1%
same,% Inhibition,"[1]; day 21, erlotinib 50 PO",30.1%
same,% T/C on day,"[1]; day 21, erlotinib 50 PO",69.9%
same,% Inhibition,"[1]; day 26, erlotinib 15 PO",17.4%
same,% Inhibition,"[1]; day 26, erlotinib 30 PO",17.4%
same,% Inhibition,"[1]; day 26, erlotinib 50 PO",17.4%
same,% T/C on day,"[1]; day 26, erlotinib 50 PO",82.6%
same,% Inhibition,"[1]; day 29, erlotinib 15 PO",30.6%
same,% Inhibition,"[1]; day 29, erlotinib 30 PO",30.6%
same,% Inhibition,"[1]; day 29, erlotinib 50 PO",30.6%
same,% T/C on day,"[1]; day 29, erlotinib 50 PO",69.4%
same,% Inhibition,"[1]; day 33, erlotinib 15 PO",17.8%
same,% Inhibition,"[1]; day 33, erlotinib 30 PO",17.8%
same,% Inhibition,"[1]; day 33, erlotinib 50 PO",17.8%
same,% T/C on day,"[1]; day 33, erlotinib 50 PO",82.2%
same,% Inhibition,"[1]; day 40, erlotinib 15 PO",14.2%
same,% Inhibition,"[1]; day 40, erlotinib 30 PO",14.2%
same,% Inhibition,"[1]; day 40, erlotinib 50 PO",14.2%
same,% T/C on day,"[1]; day 40, erlotinib 50 PO",85.8%
same,% T/C on day 17,[2]; [5],97.5%
same,% T/C on day 20,[2]; [5],113.0%
same,% T/C on day 24,[2]; [5],89.9%
same,% T/C on day 27,[2]; [5],75.9%
same,% T/C on day 32,[2]; [5],72.7%
same,% T/C on day 35,[2]; [5],62.4%
same,% T/C on day 39,[2]; [5],57.6%
same,% T/C on day 47,[2]; [5],66.8%
same,% T/C on day 17,[2]; [6],100.0%
same,% T/C on day 20,[2]; [6],109.2%
same,% T/C on day 24,[2]; [6],91.3%
same,% T/C on day 27,[2]; [6],71.0%
same,% T/C on day 32,[2]; [6],51.8%
same,% T/C on day 35,[2]; [6],38.4%
same,% T/C on day 39,[2]; [6],31.8%
same,% T/C on day 47,[2]; [6],21.5%
same,% T/C on day 17,[2]; [7],98.5%
same,% T/C on day 20,[2]; [7],95.6%
same,% T/C on day 24,[2]; [7],56.9%
same,% T/C on day 27,[2]; [7],46.4%
same,% T/C on day 32,[2]; [7],31.2%
same,% T/C on day 35,[2]; [7],22.6%
same,% T/C on day 39,[2]; [7],14.5%
same,% T/C on day 47,[2]; [7],9.5%
same,% Inhibition,"[2]; day 14, PM00104 0.23, doxorubicin 6, paclitaxel 12.5 mg/kg/day",2.5%
same,% Inhibition,"[2]; day 14, PM00104 0.45, doxorubicin 6, paclitaxel 12.5 mg/kg/day",0.0%
same,% Inhibition,"[2]; day 14, PM00104 0.90, paclitaxel 12.5 mg/kg/day",1.5%
same,% Inhibition,"[2]; day 14, PM00104 0.9 and doxorubicin 6 mg/kg/day",1.5%
same,% Inhibition,"[2]; day 20, PM00104 0.23, doxorubicin 6, paclitaxel 12.5 mg/kg/day",−13.0%
same,% Inhibition,"[2]; day 20, PM00104 0.45, doxorubicin 6, paclitaxel 12.5 mg/kg/day",−9.2%
same,% Inhibition,"[2]; day 20, PM00104 0.90, paclitaxel 12.5 mg/kg/day",4.4%
same,% Inhibition,"[2]; day 20, PM00104 0.9 and doxorubicin 6 mg/kg/day",4.4%
same,% Inhibition,"[2]; day 24, PM00104 0.23, doxorubicin 6, paclitaxel 12.5 mg/kg/day",10.1%
same,% Inhibition,"[2]; day 24, PM00104 0.45, doxorubicin 6, paclitaxel 12.5 mg/kg/day",8.7%
same,% Inhibition,"[2]; day 24, PM00104 0.90, paclitaxel 12.5 mg/kg/day",43.1%
same,% Inhibition,"[2]; day 24, PM00104 0.9 and doxorubicin 6 mg/kg/day",43.1%
same,% Inhibition,"[2]; day 27, PM00104 0.23, doxorubicin 6, paclitaxel 12.5 mg/kg/day",24.1%
same,% Inhibition,"[2]; day 27, PM00104 0.45, doxorubicin 6, paclitaxel 12.5 mg/kg/day",29.0%
same,% Inhibition,"[2]; day 27, PM00104 0.90, paclitaxel 12.5 mg/kg/day",53.6%
same,% Inhibition,"[2]; day 27, PM00104 0.9 and doxorubicin 6 mg/kg/day",53.6%
same,% Inhibition,"[2]; day 32, PM00104 0.23, doxorubicin 6, paclitaxel 12.5 mg/kg/day",27.3%
same,% Inhibition,"[2]; day 32, PM00104 0.45, doxorubicin 6, paclitaxel 12.5 mg/kg/day",48.2%
same,% Inhibition,"[2]; day 32, PM00104 0.90, paclitaxel 12.5 mg/kg/day",68.8%
same,% Inhibition,"[2]; day 32, PM00104 0.9 and doxorubicin 6 mg/kg/day",68.8%
same,% Inhibition,"[2]; day 35, PM00104 0.23, doxorubicin 6, paclitaxel 12.5 mg/kg/day",37.6%
same,% Inhibition,"[2]; day 35, PM00104 0.45, doxorubicin 6, paclitaxel 12.5 mg/kg/day",61.6%
same,% Inhibition,"[2]; day 35, PM00104 0.90, paclitaxel 12.5 mg/kg/day",77.4%
same,% Inhibition,"[2]; day 35, PM00104 0.9 and doxorubicin 6 mg/kg/day",77.4%
same,% Inhibition,"[2]; day 39, PM00104 0.23, doxorubicin 6, paclitaxel 12.5 mg/kg/day",42.4%
same,% Inhibition,"[2]; day 39, PM00104 0.45, doxorubicin 6, paclitaxel 12.5 mg/kg/day",68.2%
same,% Inhibition,"[2]; day 39, PM00104 0.90, paclitaxel 12.5 mg/kg/day",85.5%
same,% Inhibition,"[2]; day 39, PM00104 0.9 and doxorubicin 6 mg/kg/day",85.5%
same,% Inhibition,"[2]; day 47, PM00104 0.23, doxorubicin 6, paclitaxel 12.5 mg/kg/day",33.2%
same,% Inhibition,"[2]; day 47, PM00104 0.45, doxorubicin 6, paclitaxel 12.5 mg/kg/day",78.5%
same,% Inhibition,"[2]; day 47, PM00104 0.90, paclitaxel 12.5 mg/kg/day",90.5%
same,% Inhibition,"[2]; day 47, PM00104 0.9 and doxorubicin 6 mg/kg/day",90.5%
same,IC50,[3],6 nM
same,IC50,[4],3 nM
